The source of these data is patent publication US4139629A, “Pseudomonic acid amide antibacterial compounds” (priority 1976, dated 1979).

One series has as its system N.gonorrhoeae. As to the kind of experiment: Activity against N.gonorrhoeae, MIC by serial dilution in 10% horse blood agar. The format is cell-based. Particulars: Neisseria gonorrhoeae, 24 h. The procedure: (§1) *Serial dilution in 10% horse blood agar. Incubated in a partial atmosphere of CO2 for 24 hours at 37° C. Inoculated with one drop (0.001ml) of an overnight cell suspension.

Another series concerns Staph. aureus Russell. As to the kind of experiment: Antibacterial activity against Gram-positive organisms (MIC). Type of series: cell-based. As to conditions: Staphylococcus aureus.
The next series concerns Staph. aureus Oxford. The description is as above. Type of series: cell-based. As to conditions: Staphylococcus aureus.
The next series has as its system β-Haemolytic Strep. CN10. Described as above. Type of series: cell-based.
In a further series the test system is B. Subtilis. Described as above. The format is cell-based. Particulars: Bacillus subtilis.
Another series deals with M. fermentans MWKL4. Nature of the series: Antimycoplasmal MIC, metabolic-inhibition test in Microtitre plates. The format is cell-based. Particulars: Mycoplasmopsis fermentans, 168 h; M. fermentans MWKL4, source man; 37° C. for 7 days. The procedure:
(§2) The method used to test for antimycoplasmal activity was as follows:
(§3) The minimal inhibitory concentration (MIC) of the pseudomonic acid amides was determined in Microtitre plates, by a modification of the metabolic-inhibition test (Taylor-Robinson, 1967). The compounds were serially diluted in sterile de-ionised water to give a range of concentrations from 250-0.5 μg/ml. Mycoplasma broth containing 1% (w/v) of glucose and 0.005% (w/v) of phenol red, was added at a strength to compensate for its dilution by the aqueous drug solution. Approximately 10^4 colony forming units of mycoplasma were added to each concentration of drug. Drug-free infected, non-infected and pH control wells were included on each plate. Plates were sealed with cellophane tape and incubated at 37° C. for 7 days. The MIC was the lowest concentration of compound that prevented a colour change in the mycoplasma broth caused by the metabolism of glucose by the mycoplasmas.

The subject of another series is M. synoviae ATCC 25204. The series is described as above. As to conditions: Mycoplasmopsis synoviae, ATCC25204, 168 h; M. synoviae ATCC 25204, source chicken; 37° C. for 7 days. The format is cell-based. The method, then: as §2, §3
For a further series, the system named is M. agalactiae ATCC 25025. Described as above. The format is cell-based. Particulars: Mycoplasmopsis agalactiae, ATCC25025, 168 h; M. agalactiae ATCC 25025, source cattle; 37° C. for 7 days. The procedure: as §2, §3
The subject of another series is M. pneumoniae 429 a. The series is described as above. Type of series: cell-based. As to conditions: Mycoplasmoides pneumoniae, 168 h, source man, 37° C. for 7 days. The procedure: as §2, §3
A further series deals with M. pulmonis `JB`. The series is described as above. Type of series: cell-based. As to conditions: Mycoplasmopsis pulmonis, 168 h, source mouse, 37° C. for 7 days. The method, then: as §2, §3
Another series deals with M. suipneumoniae (Laber). The series is described as above. Particulars: Mesomycoplasma hyopneumoniae, 168 h, source pig, 37° C. for 7 days. Type of series: cell-based. The procedure:
as §2, §3

The next series concerns M. gallisepticum S6. The series is described as above. Particulars: Mycoplasmoides gallisepticum, 168 h; M. gallisepticum S6, source chicken; 37° C. for 7 days. The format is cell-based. The procedure:
as §2, §3

A further series relates to M. dispar H 225. The description is as above. As to conditions: 168 h; M. dispar H 225, source cattle; 37° C. for 7 days. The format is cell-based. The method, then:
as §2, §3

The next series relates to Oxford Staph. As to the kind of experiment: MIC by serial dilution in 10% horse blood agar (Table 2). The format is cell-based. As to conditions: 24 hours at 37° C. The method, then:
as §1

Series [1] concerns mycoplasmas from human and veterinary sources. As to the kind of experiment: Antimycoplasmal activity in vitro (summary). Type of series: cell-based, mycoplasma. As to conditions: in words. The procedure:
as §2, §3

Another series has as its system Strep. faecalis. As to the kind of experiment: Antibacterial activity against Gram-positive organisms (MIC). The format is cell-based. Particulars: Enterococcus faecalis.
The next series relates to Staph. aureus 1517. The series is described as above. Type of series: cell-based. Particulars: Staphylococcus aureus.
Series [2] can be described thus: Serum binding by ultrafiltration, filtrate assayed by hole-in-plate method. The format is in vitro ADME. The procedure: The degree of binding to human serum of the compounds of Examples 1 and 2 compared with that of pseudomonic acid was determined by the following procedure:
Test samples were mixed with human serum and placed in visking tubing. Serum binding was determined by ultrafiltration, the filtrate obtained being assayed by a hole-in-plate method using Bacillus subtilis ATCC 6633 against standards prepared in 0.05M pH7.0 phosphate buffer.

[3] abbreviates: strain 69, 24 hours at 37° C., read-out: M.I.C.
Where [4] appears, read: strain 70, 24 hours at 37° C., read-out: M.I.C.
The mark [5] stands for this setting: strain 77, 24 hours at 37° C., read-out: M.I.C.
Where [6] appears, read: strain 82, 24 hours at 37° C., read-out: M.I.C.
Where [7] appears, read: strain 87, 24 hours at 37° C., read-out: M.I.C.
The mark [8] stands for this setting: strain 2176, 24 hours at 37° C., read-out: M.I.C.
[9] abbreviates: strain AR 229, 24 hours at 37° C., read-out: M.I.C.
[10] abbreviates: strain H2057, 24 hours at 37° C., read-out: M.I.C.
Where [11] appears, read: strain VD 79, 24 hours at 37° C., read-out: M.I.C.
Where [12] appears, read: strain VDRL 67, 24 hours at 37° C., read-out: M.I.C.
The mark [13] stands for this setting: strain WHO VII, 24 hours at 37° C., read-out: M.I.C.

SMILES strings stand for the structures. In brackets after ≈: the same amount, converted by molar mass. Like-named read-outs stand apart in the source and are kept apart here. Some results are limits rather than exact numbers.

Turning to `C/C(=C\C(=O)OCCCCCCCCC(N)=O)CC1OCC(CC2OC2C(C)C(C)O)C(O)C1O` (stereo not drawn) [Example 2, Pseudomonic Acid Amide], the MIC in the series on N.gonorrhoeae (setting [3]) came out at 0.002 µg/mL (≈ 0.004 µM); in the series with N.gonorrhoeae (setting [4]), 0.005 µg/mL (≈ 0.01 µM); in the series with N.gonorrhoeae (strain 72, 24 hours at 37° C., read-out: M.I.C.), 0.01 µg/mL (≈ 0.02 µM); with N.gonorrhoeae (setting [5]), 0.02 µg/mL (≈ 0.04 µM); in the series with N.gonorrhoeae (setting [6]), 0.05 µg/mL (≈ 0.1 µM); in the series with N.gonorrhoeae (setting [7]), 0.005 µg/mL (≈ 0.01 µM). In addition, the MIC in the series on N.gonorrhoeae (setting [8]) was found to be 0.02 µg/mL (≈ 0.04 µM); with N.gonorrhoeae (setting [9]), 0.05 µg/mL (≈ 0.1 µM); with N.gonorrhoeae (setting [10]), 0.005 µg/mL (≈ 0.01 µM); in the series with N.gonorrhoeae (setting [11]), 0.02 µg/mL (≈ 0.04 µM); in the series on N.gonorrhoeae (setting [12]), 0.002 µg/mL (≈ 0.004 µM); with N.gonorrhoeae (setting [13]), 0.002 µg/mL (≈ 0.004 µM). Also, the MIC in the series with Staph. aureus Russell was 1 µg/mL (≈ 2 µM); against Staph. aureus Oxford, 0.5 µg/mL (≈ 1 µM); against β-Haemolytic Strep. CN10, 0.1 µg/mL (≈ 0.2 µM); in the series with B. Subtilis, 0.25 µg/mL (≈ 0.5 µM); with M. fermentans MWKL4, < 0.5 µg/mL; in the series on M. synoviae ATCC 25204, < 0.5 µg/mL. Also, the MIC against M. agalactiae ATCC 25025 is < 0.5 µg/mL; in the series on M. pneumoniae 429 a, 250 µg/mL (≈ 500 µM); in the series with M. pulmonis `JB`, < 0.5 µg/mL; with M. suipneumoniae (Laber) it was < 0.5 µg/mL; in the series with M. gallisepticum S6, < 0.5 µg/mL; against M. dispar H 225, < 0.5 µg/mL. Also, the MIC against Oxford Staph. is 0.05 µg/mL (≈ 0.1 µM); against Strep. faecalis it was 100 µg/mL (≈ 200 µM); against Staph. aureus 1517 it was 2.5 µg/mL (≈ 5 µM). In [1], the “antimycoplasmal activity in vitro” value is reported as “good antimycoplasmal activity”.

Take `CNC(=O)CCCCCCCCOC(=O)/C=C(\C)CC1OCC(CC2OC2C(C)C(C)O)C(O)C1O` (stereo not drawn) [Example 1, Pseudomonic acid N-methylamide]: the MIC with N.gonorrhoeae (setting [3]) came out at 0.002 µg/mL (≈ 0.00389 µM); with N.gonorrhoeae (setting [4]), 0.005 µg/mL (≈ 0.00973 µM); in the series on N.gonorrhoeae (setting [5]), 0.005 µg/mL (≈ 0.00973 µM); in the series with N.gonorrhoeae (setting [6]), 0.05 µg/mL (≈ 0.0973 µM); in the series with N.gonorrhoeae (setting [7]), 0.01 µg/mL (≈ 0.0195 µM); in the series with N.gonorrhoeae (setting [8]), 0.02 µg/mL (≈ 0.0389 µM). Also, the MIC stood at 0.05 µg/mL (≈ 0.0973 µM) in the series on N.gonorrhoeae (setting [9]); 0.005 µg/mL (≈ 0.00973 µM) with N.gonorrhoeae (setting [10]); 0.02 µg/mL (≈ 0.0389 µM) with N.gonorrhoeae (setting [11]); 0.002 µg/mL (≈ 0.00389 µM) in the series on N.gonorrhoeae (setting [12]); 0.005 µg/mL (≈ 0.00973 µM) with N.gonorrhoeae (setting [13]); 1.25 µg/mL (≈ 2.43 µM) against Staph. aureus Russell. Further, the MIC with Staph. aureus Oxford is 0.5 µg/mL (≈ 0.973 µM); with B. Subtilis, 0.25 µg/mL (≈ 0.487 µM); against Oxford Staph. it was 0.05 µg/mL (≈ 0.0973 µM); against Strep. faecalis, 125 µg/mL (≈ 243 µM); against Staph. aureus 1517 it was 1.25 µg/mL (≈ 2.43 µM).

As to `C/C(=C\C(=O)OCCCCCCCCC(=O)N(C)C)CC1OCC(CC2OC2C(C)C(C)O)C(O)C1O` (stereo not drawn) [Example 3, Pseudomonic acid N,N-dimethylamide], the MIC was < 0.5 µg/mL against M. fermentans MWKL4; < 0.5 µg/mL against M. synoviae ATCC 25204; < 0.5 µg/mL against M. agalactiae ATCC 25025; 250 µg/mL (≈ 474 µM) against M. pneumoniae 429 a; < 0.5 µg/mL in the series on M. pulmonis `JB`; 3.9 µg/mL (≈ 7.39 µM) with M. suipneumoniae (Laber). For the same compound, the MIC in the series on M. gallisepticum S6 and in the series with M. dispar H 225 was < 0.5 µg/mL in each case. Further, in series [1], the “antimycoplasmal activity in vitro” value is reported as “good antimycoplasmal activity”.

With `CC1(C)S[C@@H]2[C@H](NC(=O)Cc3ccccc3)C(=O)N2[C@H]1C(=O)O` [Benzyl Penicillin, benzylpenicillin, reference compound], the MIC in the series on N.gonorrhoeae (strain 69, 24 hours at 37° C.) was 0.1 µg/mL (≈ 0.299 µM); against N.gonorrhoeae (strain 70, 24 hours at 37° C.), 0.1 µg/mL (≈ 0.299 µM); in the series with N.gonorrhoeae (strain 72, 24 hours at 37° C.), 0.2 µg/mL (≈ 0.598 µM); with N.gonorrhoeae (strain 77, 24 hours at 37° C.), 0.1 µg/mL (≈ 0.299 µM); with N.gonorrhoeae (strain 82, 24 hours at 37° C.), 0.5 µg/mL (≈ 1.5 µM); in the series on N.gonorrhoeae (strain 87, 24 hours at 37° C.) it was 0.01 µg/mL (≈ 0.0299 µM). The MIC against N.gonorrhoeae (strain 2176, 24 hours at 37° C.) was determined as 0.2 µg/mL (≈ 0.598 µM); against N.gonorrhoeae (strain AR 229, 24 hours at 37° C.) it was 1 µg/mL (≈ 2.99 µM); with N.gonorrhoeae (strain H2057, 24 hours at 37° C.), 0.005 µg/mL (≈ 0.015 µM); in the series on N.gonorrhoeae (strain VD 79, 24 hours at 37° C.) it was 0.2 µg/mL (≈ 0.598 µM); against N.gonorrhoeae (strain VDRL 67, 24 hours at 37° C.) it was 0.05 µg/mL (≈ 0.15 µM); against N.gonorrhoeae (strain WHO VII, 24 hours at 37° C.), 0.005 µg/mL (≈ 0.015 µM). This compound yielded an MIC in the series on Oxford Staph. of 0.02 µg/mL (≈ 0.0598 µM).

A word on the fraction unbound: it is free concentration divided by total concentration. A higher fraction unbound goes with much free substance. `C/C(=C\C(=O)OCCCCCCCCC(=O)O)C[C@@H]1OC[C@H](C[C@@H]2O[C@H]2[C@@H](C)[C@H](C)O)[C@@H](O)[C@H]1O` [Pseudomonic acid]: the “% unbound in human serum” value in series [2] came to 6.8%. In series [2] (human, serum), this compound came in with an unbound share (fraction unbound) of 0.066.
